According to patent publication US12053506B2, “Romo1-derived antimicrobial peptides and variants thereof” (priority 2019, dated 2024):
No end group written: not given here.

Columns and labels:
[1] = tested on: methicillin-resistant Staphylococcus aureus (ATCC 33591); settings: Tables 11-15, no unit printed
Method: First, each of Pseudomonas aeruginosa (ATCC 27853) and Staphylococcus aureus (ATCC 29213) was cultured in 3% (w/v) TSB (Tryptic Soy Broth) liquid medium at 37° C. and 200 rpm for 4 hours, and then further cultured under the same conditions for 3 hours to a concentration of 5×10^6 CFU/ml. Strain solutions were prepared by diluting each of the further cultured strains with SP (sodium phosphate; 10 mM sodium phosphate, 1% TSB) buffer to a final concentration of 2×10^5 CFU/ml.
(§1) Then, each peptide at varying concentrations (0 μg/ml to 300 μg/ml) was dispensed into each well of a 96-well microplate, and 100 μl (1×10^5 CFU/ml) of each of the prepared strain solutions was added thereto, mixed therewith, and allowed to react with the peptide in an incubator at 37° C. for 1 hour.
In addition, 30 g/L of TS (tryptic soy) and 15 g/L of agar were dissolved in distilled water and sterilized, and then 25 ml of the solution was poured onto a 100 mm round plate and solidified at room temperature for one day or more, thereby preparing a TS agar plate. 10 μl of each reaction solution of the peptide and the strain was plated on the TS agar plate at a constant size, and incubated in an incubator at 37° C. for 18 hours, and then colony formation on the plate was checked.
Specifically, each type of bacteria was cultured in 3% (w/v) TSB (Tryptic Soy Broth) liquid medium at 37° C. and 200 rpm for 4 hours, and then further cultured under the same conditions for 3 hours to a concentration of 5×10^6 CFU/ml. Strain solutions were prepared by diluting each of the […] of 2×10^5 CFU/ml.
as §1, with “Then, the KU-5878” for “Then, each”
In addition, 10 μl of each reaction solution of the peptide and the strain was plated on the TS agar plate at a constant size, and incubated in an incubator at 37° C. for 18 hours, and then colony formation on the plate was checked.

CRPA = assay: MBC, evaluation of antibacterial activities of KU-5878 variants; format: cell-based; settings: Tables 11-15, no unit printed
Method: Variants were prepared by deleting one amino acid from the amino acid sequence of KU-5878 (SEQ ID NO: 13), and the antibacterial activities thereof were evaluated.
Variants were prepared by deleting two or more amino acids from the amino acid sequence of KU-5878 (SEQ ID NO: 13), and the antibacterial activities thereof were evaluated.
One amino acid in the amino acid sequence of KU-5878 (SEQ ID NO: 13) was substituted, and the antibacterial activities of the peptides were evaluated.
Substitutions of Q62K, S63K and T66K were sequentially added to the amino acid sequence of KU-5878-T59K, and the antibacterial activities of the peptides were evaluated.
An amino acid repeat sequence was added to the C-terminus of KU-5878, and the antibacterial activities of the peptides were evaluated. According to Table 15 below, when the R (arginine) repeat sequence or K (lysine) sequence was added to the C-terminus of KU-5878, the antibacterial activity of the peptide increased.

[2] = tested on: Pseudomonas aeruginosa (ATCC 27853); format: cell-based; settings: for MBC value (μg/ml) against Pseudomonas aeruginosa: ATCC 27853, 1 h; for MBC Pseudomonas aeruginosa: Tables 11-15, no unit printed
From the text: (§2) Romo1 protein comprises two α-helices. The present inventors synthesized the α-helix 2 region having both hydrophilicity and hydrophobicity, and evaluated the antibacterial activity thereof using minimum bactericidal concentration (MBC) assay. The α-helix 2 region was named KU-5279 (the 52-79 amino acid region of Romo1 protein). Then, in order to identify peptides that are beneficial for human application and have excellent antibacterial activity, the present inventors synthesized several peptides comprising a sequence of contiguous amino acids starting at any amino acid selected from the 52-79 amino acid region of Romo1 protein, and comparatively evaluated the antibacterial activities of the peptides by minimum bactericidal concentration assay (See Table 1 below for information on each peptide). Evaluation of the antibacterial activity of each peptide by minimum bactericidal concentration assay was specifically performed as follows. First, each of Pseudomonas aeruginosa (ATCC 27853) and Staphylococcus aureus (ATCC 29213) was cultured in 3% (w/v) TSB (Tryptic Soy Broth) liquid medium at 37° C. and 200 rpm for 4 hours, and then further cultured under the same conditions for 3 hours to a concentration of 5×10^6 CFU/ml. Strain solutions were prepared by diluting each of the further cultured strains with SP (sodium phosphate; 10 mM sodium phosphate, 1% TSB) buffer to a final concentration of 2×10^5 CFU/ml. Then, each peptide at varying concentrations (0 μg/ml to 300 μg/ml) was dispensed into each well of a 96-well microplate, and 100 μl (1×10^5 CFU/ml) of each of the prepared strain solutions was added thereto, mixed therewith, and allowed to react with the peptide in an incubator at 37° C. for 1 hour. In addition, 30 g/L of TS (tryptic soy) and 15 g/L of agar were dissolved in distilled water and sterilized, and then 25 ml of the solution was poured onto a 100 mm round plate and solidified at room temperature for one day or more, thereby preparing a TS agar plate. 10 μl of each reaction solution of the peptide and the strain was plated on the TS agar plate at a constant size, and incubated in an incubator at 37° C. for 18 hours, and then colony formation on the plate was checked. The minimum bactericidal concentration was defined as the minimum concentration of the peptide at which no colony was formed, and the experimental results are shown in Table 1 below.

[3] = tested on: Staphylococcus aureus (ATCC 29213); format: cell-based; settings: for MBC value (μg/ml) against Staphylococcus aureus: ATCC 29213, 1 h; for MBC Staphylococcus aureus: Tables 11-15, no unit printed
From the text: as §2

Row | Substance | MBC MRSA [1] [µg/mL] | MBC CRPA (CRPA) [µg/mL] | MBC value (μg/ml) against Pseudomonas aeruginosa [2] [µg/mL] | MBC Pseudomonas aeruginosa [2] [µg/mL] | MBC value (μg/ml) against Staphylococcus aureus [3] [µg/mL] | MBC Staphylococcus aureus [3] [µg/mL]
1 | KTMMQSGGTAGTFMAIGMGIR [KU-5878-F67A] | > 300 | > 300 | >300 | > 300 | >300 | > 300
2 | KTMMQSGGRFGTFMAIGMGIR [KU-5878-T66R] | 90 | 80 |  | 80 |  | 90
3 | KTMMQSGGTFG-FMAIGMGIR [Peptide 5878-d69T] | 140 | 140 |  | 120 |  | 120
4 | KTMMQSGGTFGTFMAIG-GIR [Peptide 5878-d75M] | 110 | 100 |  | 100 |  | 100
5 | -TMMQSGGTFGTFMAIGMGIR [Peptide 5878-d58K] | > 300 | 300 |  | 300 |  | 300
6 | KT-MQSGGTFGTFMAIGMGIR [Peptide 5878-d60M] | 100 | 90 |  | 90 |  | 90
7 | KTMMQSGGTFGTFMAWGMGIR [KU-5878-I73W] | > 300 | 300 | 300 | 300 | 300 | 300
8 | KAMMQSGGTFGTFMAIGMGIR [KU-5878-T59A] | 140 | 130 |  | 150 |  | 120
9 | K-MMQSGGTFGTFMAIGMGIR [Peptide 5878-d59T] | 150 | 150 |  | 150 |  | 150
10 | KTMMQSGGTF-TFMAIGMGIR [Peptide 5878-d68G] | 25 | 18 |  | 25 |  | 20
11 | KTMMHSGGTFGTFMAIGMGIR [KU-5878-Q62H] | > 300 | > 300 |  | > 300 |  | > 300
12 | KTMMQSGGTFGTFM-IGMGIR [Peptide 5878-d72A] | 160 | 170 |  | 150 |  | 150
13 | KTMMQSGGTFGAFMAIGMGIR [KU-5878-T69A] | 300 | 300 |  | 300 |  | 300
14 | KTMMRSGGTFGTFMAIGMGIR [KU-5878-Q62R] | 90 | 80 |  | 80 |  | 80
15 | KTMMQSGGTFGTFMAIGMGKR [KU-5878-I77K] | > 300 | > 300 | >300 | > 300 | >300 | > 300
